The structures appear in SMILES notation.

The text below walks through data of ChEMBL document CHEMBL1154184, “Rational design and synthesis of potent dibenzazepine motifs as beta-secretase inhibitors” (J Med Chem, 2009).

The target in the experiment is Beta-secretase 1 (Homo sapiens, UniProt P56817). Nature of the experiment: Inhibition of human recombinant BACE1 by FRET assay.
Sequence of Beta-secretase 1 (P56817 whole entry): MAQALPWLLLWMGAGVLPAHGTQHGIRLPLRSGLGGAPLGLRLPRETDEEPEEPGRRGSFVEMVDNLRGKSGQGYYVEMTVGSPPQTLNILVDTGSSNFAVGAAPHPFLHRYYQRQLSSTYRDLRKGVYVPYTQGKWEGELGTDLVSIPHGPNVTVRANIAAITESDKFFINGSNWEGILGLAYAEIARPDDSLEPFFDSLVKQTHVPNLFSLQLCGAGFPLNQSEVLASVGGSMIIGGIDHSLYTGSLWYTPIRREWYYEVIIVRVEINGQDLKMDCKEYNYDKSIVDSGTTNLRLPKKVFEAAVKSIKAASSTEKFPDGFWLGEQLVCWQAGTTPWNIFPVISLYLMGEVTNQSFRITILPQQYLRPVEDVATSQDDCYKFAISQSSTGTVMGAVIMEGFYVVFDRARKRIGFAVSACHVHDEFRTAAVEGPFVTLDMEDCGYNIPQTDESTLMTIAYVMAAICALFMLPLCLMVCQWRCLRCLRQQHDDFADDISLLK
For orientation: Ki means a dissociation constant, usually derived from enzyme kinetics or from competition with a known ligand. As for `O=C(Nc1nc2ccc(F)cc2[nH]1)c1ccc2c(c1)Nc1ccccc1NC2=O`, the Ki was 244 nM.

With `O=C(Nc1ccc(F)cc1)c1ccc2c(c1)Nc1ccccc1NC2=O`, the Ki came to 211 nM.

On to `O=C(Nc1nc(-c2ccc(F)cc2)c[nH]1)c1ccc2c(c1)Nc1ccccc1NC2=O`, for which the Ki is 293 nM.

For `O=C(Nc1nc2ccncc2[nH]1)c1ccc2c(c1)Nc1ccccc1NC2=O`, the inhibition constant Ki worked out at 309 nM.

Consider `O=C(Nc1nc(-c2ccncc2)c[nH]1)c1ccc2c(c1)Nc1ccccc1NC2=O`, for which the Ki was found to be 348 nM.

For `O=C(Nc1ccncc1)c1ccc2c(c1)Nc1ccccc1NC2=O`, the Ki worked out at 295 nM.

On to `C[C@@H](NC(=O)c1cc(NS(C)(=O)=O)cc(C(=O)N[C@@H](Cc2ccccc2)[C@@H](O)CNC2CC2)c1)c1ccc(F)cc1`, for which the Ki worked out at 10 nM.
